Experimental data published in US20210045385A1, “PYRIDAZINONE-SUBSTITUTED KETOXIMES AS HERBICIDES” (FMC Corporation, priority 2018, published 2021).

Key:
Assay type in all cases: in vivo
rice (Oryza sativa) = experiment: Test B flooded paddy test, visual plant response rating; conditions: 250 g ai/ha, Flood, applied to paddy water, 2-leaf stage, evaluated after 13 to 15 days
Summary of the method: (§1)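 2-leaf plants; pots flooded 3 cm over soil surface; compound dosed straight into the floodwater; depth kept constant; greenhouse 13–15 d; visual rating vs. untreated controls.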

[1] = system: sedge, umbrella (small-flower umbrella sedge, Cyperus difformis); experiment: as above; conditions: 250 g ai/ha, Flood, applied to paddy water, 2-leaf stage, evaluated after 13 to 15 days
Summary of the method: as §1

[2] = system: ducksalad (Heteranhera limosa); experiment: as above; conditions: 250 g ai/ha, Flood, applied to paddy water, 2-leaf stage, evaluated after 13 to 15 days
Summary of the method: as §1

[3] = system: barnyardgrass (Echinochloa crus-galli); experiment: as above; conditions: 250 g ai/ha, Flood, applied to paddy water, 2-leaf stage, evaluated after 13 to 15 days
Summary of the method: as §1

[4] = system: ragweed (common ragweed, Ambrosia elatior); experiment: Test A postemergence, visual plant response rating
Summary of the method: (§2)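 Compared with untreated controls, treated plants received a visual injury score on a 0–100 scale around 10 days after application. The compound, in a non-phytotoxic solvent with surfactant, was given as a preemergence soil spray or postemergence at the one- to two-leaf stage.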

[5] = system: Italian ryegrass (Lolium multiflorum); experiment: Test A postemergence, visual plant response rating
Summary of the method: as §2

[6] = system: wheat (Triticum aestivum); experiment: Test A postemergence, visual plant response rating
Summary of the method: as §2

kochia (Kochia scoparia) [7] = experiment: Test A postemergence, visual plant response rating
Summary of the method: as §2

corn (Zea mays) = experiment: Test A postemergence, visual plant response rating
Summary of the method: as §2

[8] = system: foxtail, giant (giant foxtail, Setaria faberii); experiment: Test A postemergence, visual plant response rating
Summary of the method: as §2

[9] = system: pigweed (Amaranthus retroflexus); experiment: Test A postemergence, visual plant response rating
Summary of the method: as §2

[10] = system: galium (catchweed bedstraw, Galium aparine); experiment: Test A postemergence, visual plant response rating
Summary of the method: as §2

[11] = system: barnyardgrass (Echinochloa crus-galli); experiment: Test A postemergence, visual plant response rating
Summary of the method: as §2

[12] = system: blackgrass (Alopecurus myosuroides); experiment: Test A postemergence, visual plant response rating
Summary of the method: as §2

[13] = system: ragweed (common ragweed, Ambrosia elatior); experiment: Test A preemergence, visual plant response rating
Summary of the method: as §2

[14] = system: Italian ryegrass (Lolium multiflorum); experiment: Test A preemergence, visual plant response rating
Summary of the method: as §2

kochia (Kochia scoparia) [15] = experiment: Test A preemergence, visual plant response rating
Summary of the method: as §2

[16] = system: foxtail, giant (giant foxtail, Setaria faberii); experiment: Test A preemergence, visual plant response rating
Summary of the method: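 Ratings use a 0–100 visual scale (100 = complete control) against untreated controls, scored about 10 days after greenhouse treatment. Test chemicals were formulated in surfactant-containing non-phytotoxic solvent and applied either as soil spray after planting (preemergence) or onto one- to two-leaf, 2–10 cm plants (postemergence).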

[17] = system: pigweed (Amaranthus retroflexus); experiment: Test A preemergence, visual plant response rating
Summary of the method: as §2

[18] = system: barnyardgrass (Echinochloa crus-galli); experiment: Test A preemergence, visual plant response rating
Summary of the method: as §2

[19] = 500 g ai/ha, postemergence, 0 is no effect, 100 is complete control
[20] = Postemergence, 125 g ai/ha, 0 to 100 scale (0 no effect, 100 complete control)
[21] = 125 g ai/ha, preemergence, 0 to 100 scale, 0 no effect, 100 complete control
[22] = 500 g ai/ha Preemergence, approx. 10 days

**Q.** For CON=C(c1ccccc1C1CC1)c1c(O)c(C)nn(C)c1=O [Compound 105], which “Plant response rating, Rice (0 to 100 scale, 0 is no effect, 100 is complete control)” value (rice (Oryza sativa)) is on record?
**A.** The value was 0.

**Q.** What about the “Plant response rating, Sedge, Umbrella (0 to 100 scale, 0 is no effect, 100 is complete control)” value [1] of the same compound?
**A.** The value was 0.

**Q.** What about the “Plant response rating, Ducksalad (0 to 100 scale, 0 is no effect, 100 is complete control)” value [2] of the same compound?
**A.** Its value is 0.

**Q.** What about the “Plant response rating, Barnyardgrass (0 to 100 scale, 0 is no effect, 100 is complete control)” value [3] of the same compound?
**A.** Its value is 0.

**Q.** And the “Ragweed plant response rating (0 to 100 scale)” value [4, 19]?
**A.** The value was 90.

**Q.** What about the “Ragweed plant response rating” value [4, 20] of the same compound?
**A.** The value was 90.

**Q.** What about the “Ryegrass, Italian plant response rating (0 to 100 scale)” value [5, 19] of the same compound?
**A.** The value was 90.

**Q.** And the “Ryegrass, Italian plant response rating” value [5, 20]?
**A.** Its value is 90.

**Q.** And the “Wheat plant response rating (0 to 100 scale)” value [6, 19]?
**A.** Its value is 80.

**Q.** And the “Wheat plant response rating” value [6, 20]?
**A.** Its value is 60.

**Q.** What about the “Kochia plant response rating (0 to 100 scale)” value (kochia (Kochia scoparia) [7]; [19]) of the same compound?
**A.** The value was 80.

**Q.** And the “Kochia plant response rating” value (kochia (Kochia scoparia) [7]; [20])?
**A.** The value was 70.

**Q.** What about the “Corn plant response rating (0 to 100 scale)” value (corn (Zea mays); [19]) of the same compound?
**A.** Its value is 30.

**Q.** What about the “Corn plant response rating” value (corn (Zea mays); [20]) of the same compound?
**A.** The value was 10.

**Q.** What about the “Foxtail, Giant plant response rating (0 to 100 scale)” value [8, 19] of the same compound?
**A.** The value was 80.

**Q.** What about the “Foxtail, Giant plant response rating” value [8, 20] of the same compound?
**A.** The value was 70.

**Q.** And the “Pigweed plant response rating (0 to 100 scale)” value [9, 19]?
**A.** The value was 70.

**Q.** What about the “Pigweed plant response rating” value [9, 20] of the same compound?
**A.** The value was 60.

**Q.** And the “Galium plant response rating (0 to 100 scale)” value [10, 19]?
**A.** The value was 90.

**Q.** What about the “Galium plant response rating” value [10, 20] of the same compound?
**A.** The value was 90.

**Q.** And the “Barnyardgrass plant response rating (0 to 100 scale)” value [11, 19]?
**A.** The value was 80.

**Q.** And the “Barnyardgrass plant response rating” value [11, 20]?
**A.** Its value is 40.

**Q.** What about the “Blackgrass plant response rating (0 to 100 scale)” value [12, 19] of the same compound?
**A.** The value was 90.

**Q.** What about the “Blackgrass plant response rating” value [12, 20] of the same compound?
**A.** Its value is 80.

**Q.** What about the “Ragweed plant response rating” value [13, 21] of the same compound?
**A.** The value was 50.

**Q.** What about the “Ragweed plant response rating (0 to 100 scale)” value [13, 22] of the same compound?
**A.** Its value is 60.

**Q.** What about the “Ryegrass, Italian plant response rating” value [14, 21] of the same compound?
**A.** Its value is 90.

**Q.** What about the “Ryegrass, Italian plant response rating (0 to 100 scale)” value [14, 22] of the same compound?
**A.** Its value is 100.

**Q.** What about the “Kochia plant response rating” value (kochia (Kochia scoparia) [15]; [21]) of the same compound?
**A.** Its value is 10.

**Q.** And the “Kochia plant response rating (0 to 100 scale)” value (kochia (Kochia scoparia) [15]; [22])?
**A.** Its value is 70.

**Q.** What about the “Foxtail, Giant plant response rating” value [16, 21] of the same compound?
**A.** Its value is 60.

**Q.** And the “Foxtail, Giant plant response rating (0 to 100 scale)” value [16, 22]?
**A.** Its value is 90.

**Q.** And the “Pigweed plant response rating” value [17, 21]?
**A.** The value was 70.

**Q.** And the “Pigweed plant response rating (0 to 100 scale)” value [17, 22]?
**A.** Its value is 70.

**Q.** What about the “Barnyardgrass plant response rating” value [18, 21] of the same compound?
**A.** The value was 60.

**Q.** What about the “Barnyardgrass plant response rating (0 to 100 scale)” value [18, 22] of the same compound?
**A.** Its value is 80.
